Where a name gives a salt, the structure may show the parent alone.
What was measured:
KMS.12.BM cells = test: KMS.12.BM cell viability assay; type: cell-based; details: 72 h; KMS.12.BM human myeloma cells, 3 days, Cell Titer-GLO ATP quantitation; read-out: KMS cellular IC50
Outline: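 Human myeloma KMS.12.BM cells, 5000 per well in RPMI/10% FBS, exposed 3 days to compound concentration range. Viability from ATP-based Cell Titer-GLO luminescence; IC50 derived.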

BRD4-BD1 = BRD4-BD1 (Homo sapiens (Human), UniProt O60885); test: BRD4 AlphaScreen assay (BRD4-BD1); type: binding; details: H4Ac4 peptide, read-out: BRD4 BD-1 enzyme IC50
Method: (§1) BRD4-BD1 and BRD4-BD2 assays were conducted in white 384-well polystyrene plate in a final volume of 20 μL for BD1 and 40 μL for BD2. Inhibitors were first serially diluted in DMSO and added to the plate wells before the addition of other reaction components. The final concentration of DMSO in the assay was 1.25% (BD1) and 0.83% (BD2). The assays were carried out at room temperature for 75 min. in the assay buffer (50 mM HEPES, pH 7.4, 100 mM NaCl, 0.05% CHAPS, 0.01% BSA), containing 50 nM Biotin-labeled tetra-acetylated histone H4 peptide (H4Ac4), 3.8 nM (BRD4-BD1, BPS Bioscience #31040) or 20 nM (BRD4-BD2, BPS Bioscience #31041). The reaction followed by the addition of 20 μL of assay buffer supplemented with Streptavidin donor beads (PerkinElmer 6760002) and GSH Acceptor beads (PerkinElmer-AL109C) at 4 μg/mL under reduced light. After plate sealing, the plate was incubated in the dark at room temperature for 75 min. before reading on a PHERAstar FS plate reader (BMG Labtech). IC50 determination was performed by fitting the curve of percent control activity versus the log of the inhibitor concentration using the GraphPad Prism 5.0 software.

BRD4-BD2 = BRD4-BD2 (Homo sapiens (Human), UniProt O60885); test: BRD4 AlphaScreen assay (BRD4-BD2); type: binding; details: H4Ac4 peptide, read-out: BRD4 BD-2 enzyme IC50
Method: as §1

| IC50 (BRD4-BD1) | IC50 (BRD4-BD2) | SMILES | IC50 (KMS.12.BM cells) |
| --- | --- | --- | --- |
| ≤ 100 nM |  | Cc1nnc2ccc3c(cc(-c4ccn(C5(CC#N)CN(C(C)C)C5)n4)n3Cc3ccccc3)n12 [Example 111, {3-[3-(6-benzyl-1-methyl-6H-pyrrolo[2,3-e][1,2,4]triazolo[4,3-a]pyridin-7-yl)-1H-pyrazol-1-yl]-1-isopropylazetidin-3-yl}acetonitrile] | ≤ 1000 nM |
| ≤ 100 nM | ≤ 100 nM | Cc1nnc2ccc3c(cc(-c4ccn(C5CNC5)n4)n3Cc3cccc(Cl)c3)n12 [Example 156, 7-(1-azetidin-3-yl-1H-pyrazol-3-yl)-6-(3-chlorobenzyl)-1-methyl-6H-pyrrolo[2,3-e][1,2,4]triazolo[4,3-a]pyridine bis(trifluoroacetate) salt] | ≤ 1000 nM |
| ≤ 100 nM | ≤ 100 nM | Cc1nnc2ccc3c(cc(-c4nnco4)n3Cc3cc(Cl)cc(CN4CC(O)C4)c3)n12 [Example 139, 1-(3-Chloro-5-{[1-methyl-7-(1,3,4-oxadiazol-2-yl)-6H-pyrrolo[2,3-e][1,2,4]triazolo[4,3-a]pyridin-6-yl]methyl}benzyl)azetidin-3-ol] | 1000 to 10000 nM |
| ≤ 100 nM |  | CCN1CC(CC#N)(n2ccc(-c3cc4c(ccc5nnc(C)n54)n3Cc3ccccc3)n2)C1 [Example 110, {3-[3-(6-benzyl-1-methyl-6H-pyrrolo[2,3-e][1,2,4]triazolo[4,3-a]pyridin-7-yl)-1H-pyrazol-1-yl]-1-ethylazetidin-3-yl}acetonitrile] | ≤ 1000 nM |
| ≤ 100 nM |  | Cc1nc2c(cc(NC3CCN(C)CC3)c3nnc(C)n32)n1Cc1ccccc1 [Example 223, 3-Benzyl-2,8-dimethyl-N-(1-methylpiperidin-4-yl)-3H-imidazo[4,5-e][1,2,4]triazolo[4,3-a]pyridin-5-amine] | ≤ 1000 nM |
|  | ≤ 100 nM | Cc1nnc2ccc3c(cc(-c4ccn(C5CN(S(C)(=O)=O)C5)n4)n3Cc3cccc(Cl)c3)n12 [Example 109, 6-(3-chlorobenzyl)-1-methyl-7-{1-[1-(methylsulfonyl)azetidin-3-yl]-1H-pyrazol-3-yl}-6H-pyrrolo[2,3-e][1,2,4]triazolo[4,3-a]pyridine] | ≤ 1000 nM |
| 100 to 1000 nM | ≤ 100 nM | Cc1cc2c(ccc3nnc(C)n32)n1[C@@H](C)c1ccccc1 (single isomer, unassigned) [Example 5, 1,7-dimethyl-6-(1-phenylethyl)-6H-pyrrolo[2,3-e][1,2,4]triazolo[4,3-a]pyridine] | 1000 to 10000 nM |
| ≤ 100 nM | ≤ 100 nM | Cc1nnc2ccc3c(cc(-c4ccn(C5(CC#N)CNC5)n4)n3Cc3cccc(Cl)c3)n12 [Example 157, (3-{3-[6-(3-Chlorobenzyl)-1-methyl-6H-pyrrolo[2,3-e][1,2,4]triazolo[4,3-a]pyridin-7-yl]-1H-pyrazol-1-yl}azetidin-3-yl)acetonitrile bis(trifluoroacetate) salt] | ≤ 1000 nM |
|  | […] | Cc1nnc2ccc3c(cc(-c4nnco4)n3Cc3cc(Cl)cc(CN4CCC4)c3)n12 [Example 140, 6-[3-(Azetidin-1-ylmethyl)-5-chlorobenzyl]-1-methyl-7-(1,3,4-oxadiazol-2-yl)-6H-pyrrolo[2,3-e][1,2,4]triazolo[4,3-a]pyridine] | ≤ 1000 nM |
|  |  | Cc1cc2c(ccc3nnc(C)n32)n1Cc1ccccc1 [Example 2, 6-benzyl-1,7-dimethyl-6H-pyrrolo[2,3-e][1,2,4]triazolo[4,3-a]pyridine] | ≤ 1000 nM |
|  |  | CCNC(=O)CCn1ccc(-c2cc3c(ccc4nnc(C)n43)n2Cc2ccccc2)n1 [Example 96, 3-[3-(6-benzyl-1-methyl-6H-pyrrolo[2,3-e][1,2,4]triazolo[4,3-a]pyridin-7-yl)-1H-pyrazol-1-yl]-N-ethylpropanamide] | ≤ 1000 nM |
|  |  | Cc1nnc2ccc3c(cc(-c4ccn(CCC(=O)N5CCN(C)CC5)n4)n3Cc3cccc(Cl)c3)n12 [Example 105, 6-(3-chlorobenzyl)-1-methyl-7-{1-[3-(4-methylpiperazin-1-yl)-3-oxopropyl]-1H-pyrazol-3-yl}-6H-pyrrolo[2,3-e][1,2,4]triazolo[4,3-a]pyridine] | ≤ 1000 nM |
|  |  | Cc1cc2c(cc(N[C@@H]3CCNC3)c3nnc(C)n32)n1Cc1ccccc1 [Example 151, 6-benzyl-1,7-dimethyl-N-[(3R)-pyrrolidin-3-yl]-6H-pyrrolo[2,3-e][1,2,4]triazolo[4,3-a]pyridin-4-amine bis(trifluoroacetate) salt] | ≤ 1000 nM |
|  |  | Cc1cc2c(cc(NC3CCCN(C)C3)c3nnc(C)n32)n1Cc1ccccc1 (racemic) [Example 144, 6-benzyl-1,7-dimethyl-N-(1-methylpiperidin-3-yl)-6H-pyrrolo[2,3-e][1,2,4]triazolo[4,3-a]pyridin-4-amine (racemic)] | 1000 to 10000 nM |

| SMILES | IC50 (BRD4-BD1) | IC50 (BRD4-BD2) | IC50 (KMS.12.BM cells) |
| --- | --- | --- | --- |
| Cc1nnc2ccc3c(cc(-c4nnco4)n3Cc3cccc(Cl)c3)n12 [Example 141, 6-(3-Chlorobenzyl)-1-methyl-7-(1,3,4-oxadiazol-2-yl)-6H-pyrrolo[2,3-e][1,2,4]triazolo[4,3-a]pyridine trifluoroacetate salt] | ≤ 100 nM | ≤ 100 nM | ≤ 1000 nM |
